Assays:
Cph [1] = assay: Coupled enzyme assay and kinetics of Cph; format: biochemical, Saccharothrix mutabilis subsp. capreolus; conditions: for absorbance at 340 nm, Average of triplicate: substrate + ATP
Description: The phosphorylation reaction was measured by a coupled enzyme assay as following. […] The reactions were mixed well in a final volume of 200 μL in 96-well plates. The Cph001 activity was assayed by determining the oxidation of NADH at 340 nm. The reaction buffer and enzyme concentration of the Cph reaction was followed by previous study. The 340 nm absorbance changes were detected at 30 °C for every 1 min at a time in 15 min on an EPOCH Microplate Reader (BioTek). All reactions were carried out in triplicate.

[2] = test system: E. coli/pET-22b (Control); assay: Disk diffusion assay; format: cell-based, E. coli BL21 Rosetta (DE3); conditions: Escherichia coli, 24 h, read-out: inhibition zones
Description: The E. coli BL21 Rosetta (DE3) strains containing pET22b, and its carrying cph, cph001, cph002, cph003, aph(3′)-Ia, and mphB plasmids were cultured overnight. The cells, respectively, were then diluted to 0.1 OD600 in molten LB agar with 100 μg/mL ampicillin and 500 μM IPTG for the disk diffusion assay. The cells with ampicillin and IPTG were mixed well with molten LB agar and then poured into 10 cm diameter Petri dishes. […] The Petri dishes were placed in the incubator at 37 °C and the inhibition zones were observed after 24 hr.

Cph [3] = test system: Cph; set-up: method as in Previous kinetic studies; conditions: ATP as a phosphate donor; ref Previous kinetic studies; read-out: Km value of Cph for CMN IIA; cited from earlier work
Cph001^D189A = assay: Coupled enzyme assay of Cph001 variant; format: biochemical, Streptosporangium roseum; conditions: for absorbance at 340 nm, Average of triplicate: 2 mM substrate + ATP
Description: The phosphorylation reaction was measured by a coupled enzyme assay as following. The reaction 1, performed by 0.77 μM Cph001 with 2 mM antibiotic substrates (CMN IIA, CMN IIB, VIO, Kan, or Ery), was coupled to the reaction 2 and 3 in the presence of 4 U PK (pyruvate kinase from rabbit muscle, Merck), 4 U LDH (lactate dehydrogenase from rabbit muscle, Merck), 2 mM ATP or GTP, 2 mM PEP (phosphoenolpyruvate), 0.5 mM NADH, 40 mM KCl and 5 mM MgCl2 in a reaction buffer containing 400 mM NaCl and 20 mM Tris buffer at pH 8.0. The reactions were mixed well in a final volume of 200 μL in 96-well plates. The Cph001 activity was assayed by determining the oxidation of NADH at 340 nm. The reaction buffer and enzyme concentration of the Cph reaction was followed by previous study. The 340 nm absorbance changes were detected at 30 °C for every 1 min at a time in 15 min on an EPOCH Microplate Reader (BioTek). All reactions were carried out in triplicate.

Cph001 = biological target: T1, Cph001 (Streptosporangium roseum, UniProt D2B3F1); assay: Isothermal titration calorimetry (ITC) analysis of Cph001; format: binding
T1 sequence (D2B3F1 1-286): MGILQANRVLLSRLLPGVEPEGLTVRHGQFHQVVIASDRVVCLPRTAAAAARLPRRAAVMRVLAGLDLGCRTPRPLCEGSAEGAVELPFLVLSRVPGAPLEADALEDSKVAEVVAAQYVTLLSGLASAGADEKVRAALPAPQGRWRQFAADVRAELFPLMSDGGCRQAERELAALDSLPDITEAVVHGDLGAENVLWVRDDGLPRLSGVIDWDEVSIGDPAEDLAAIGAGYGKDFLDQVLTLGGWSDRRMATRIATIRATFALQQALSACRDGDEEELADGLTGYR
Description: The integrated heat areas constitute a differential binding curve that was fitted with a standard single-site binding model by Origin 7.

E. coli/cph002 = assay: Disk diffusion assay; format: cell-based, E. coli BL21 Rosetta (DE3)
Description: (§1) The E. coli BL21 Rosetta (DE3) strains containing pET22b, and its carrying cph, cph001, cph002, cph003, aph(3′)-Ia, and mphB plasmids were cultured overnight. The cells, respectively, were then diluted to 0.1 OD600 in molten LB agar with 100 μg/mL ampicillin and 500 μM IPTG for the disk diffusion assay. The cells with ampicillin and IPTG were mixed well with molten LB agar and then poured into 10 cm diameter Petri dishes. The 7 mm disks were placed onto the LB agar and gently loaded with varying quantities of CMN IIA, CMN IIB, VIO, Kan, and Ery, ranging from 0 to 200 μg. The Petri dishes were placed in the incubator at 37 °C and the inhibition zones were observed after 24 hr.

E. coli/cph = assay: Disk diffusion assay; format: cell-based, E. coli BL21 Rosetta (DE3)
Description: as §1

E. coli/cph001 = assay: Disk diffusion assay; format: cell-based, E. coli BL21 Rosetta (DE3)
Description: as §1

E. coli/cph003 = assay: Disk diffusion assay; format: cell-based, E. coli BL21 Rosetta (DE3)
Description: as §1

[4] = Escherichia coli, 24 h, read-out: inhibition zones

N=C1NCCC([C@@H]2NC(=O)/C(=C/NC(N)=O)NC(=O)[C@H](CNC(=O)C[C@@H](N)CCCN)NC(=O)[C@H](CO)NC(=O)[C@@H](N)CNC2=O)N1 (stereo in doubt) [CMN IIA]
phosphorylation by Cph in couple enzyme assay (Cph [1]; CMN IIA and ATP, absorbance at 340 nm): decrease in absorbance at 340 nm
absorbance at 340 nm, Average of triplicate (Cph [1]; time 00:00:00): 1.495
absorbance at 340 nm, Average of triplicate (Cph [1]; time 00:01:00): 1.379
absorbance at 340 nm, Average of triplicate (Cph [1]; time 00:02:00): 1.219
absorbance at 340 nm, Average of triplicate (Cph [1]; time 00:03:00): 1.045
absorbance at 340 nm, Average of triplicate (Cph [1]; time 00:04:00): 0.85
absorbance at 340 nm, Average of triplicate (Cph [1]; time 00:05:00): 0.6453
absorbance at 340 nm, Average of triplicate (Cph [1]; time 00:06:00): 0.4483
absorbance at 340 nm, Average of triplicate (Cph [1]; time 00:07:00): 0.303
absorbance at 340 nm, Average of triplicate (Cph [1]; time 00:08:00): 0.2213
absorbance at 340 nm, Average of triplicate (Cph [1]; time 00:09:00): 0.1687
absorbance at 340 nm, Average of triplicate (Cph [1]; time 00:10:00): 0.136
absorbance at 340 nm, Average of triplicate (Cph [1]; time 00:11:00): 0.1227
absorbance at 340 nm, Average of triplicate (Cph [1]; time 00:12:00): 0.1173
absorbance at 340 nm, Average of triplicate (Cph [1]; time 00:13:00): 0.1173
absorbance at 340 nm, Average of triplicate (Cph [1]; time 00:14:00): 0.1173
absorbance at 340 nm, Average of triplicate (Cph [1]; time 00:15:00): 0.1177
zone of inhibition at 12.5 µg/disc [2]: 17 mm
zone of inhibition at 50 µg/disc [2]: 22 mm
zone of inhibition at 100 µg/disc [2]: 24 mm
zone of inhibition at 200 µg/disc [2]: 27.5 mm
Km (Cph [3]): 460 µM
phosphotransferase activity of variant (Cph001^D189A; CMN IIA + ATP): complete loss of phosphotransferase activity
absorbance at 340 nm, Average of triplicate (Cph001^D189A; time 00:00:00): 1.495
absorbance at 340 nm, Average of triplicate (Cph001^D189A; time 00:01:00): 1.482
absorbance at 340 nm, Average of triplicate (Cph001^D189A; time 00:02:00): 1.504
absorbance at 340 nm, Average of triplicate (Cph001^D189A; time 00:03:00): 1.549
absorbance at 340 nm, Average of triplicate (Cph001^D189A; time 00:04:00): 1.574
absorbance at 340 nm, Average of triplicate (Cph001^D189A; time 00:05:00): 1.588
absorbance at 340 nm, Average of triplicate (Cph001^D189A; time 00:06:00): 1.596
absorbance at 340 nm, Average of triplicate (Cph001^D189A; time 00:07:00): 1.602
absorbance at 340 nm, Average of triplicate (Cph001^D189A; time 00:08:00): 1.612
absorbance at 340 nm, Average of triplicate (Cph001^D189A; time 00:09:00): 1.625
absorbance at 340 nm, Average of triplicate (Cph001^D189A; time 00:10:00): 1.641
absorbance at 340 nm, Average of triplicate (Cph001^D189A; time 00:11:00): 1.654
absorbance at 340 nm, Average of triplicate (Cph001^D189A; time 00:12:00): 1.662
absorbance at 340 nm, Average of triplicate (Cph001^D189A; time 00:13:00): 1.67
absorbance at 340 nm, Average of triplicate (Cph001^D189A; time 00:14:00): 1.682
absorbance at 340 nm, Average of triplicate (Cph001^D189A; time 00:15:00): 1.69
Kd (Cph001): 1240 ± 80 nM
resistance in disk diffusion assay (E. coli/cph002; E. coli harboring cph002): becomes resistant
zone of inhibition at 12.5 µg/disc (E. coli/cph002; [4]): 14 mm
zone of inhibition at 50 µg/disc (E. coli/cph002; [4]): 17 mm
zone of inhibition at 100 µg/disc (E. coli/cph002; [4]): 19.5 mm
zone of inhibition at 200 µg/disc (E. coli/cph002; [4]): 23 mm
resistance in disk diffusion assay (E. coli/cph; E. coli harboring cph): becomes resistant
zone of inhibition at 50 µg/disc (E. coli/cph; [4]): 11 mm
zone of inhibition at 100 µg/disc (E. coli/cph; [4]): 13 mm
zone of inhibition at 200 µg/disc (E. coli/cph; [4]): 15.5 mm
resistance in disk diffusion assay (E. coli/cph001; E. coli harboring cph001): becomes resistant
zone of inhibition at 12.5 µg/disc (E. coli/cph001; [4]): 9.5 mm
zone of inhibition at 50 µg/disc (E. coli/cph001; [4]): 13 mm
zone of inhibition at 100 µg/disc (E. coli/cph001; [4]): 15 mm
zone of inhibition at 200 µg/disc (E. coli/cph001; [4]): 18 mm
resistance in disk diffusion assay (E. coli/cph003; E. coli harboring cph003): becomes resistant
zone of inhibition at 12.5 µg/disc (E. coli/cph003; [4]): 13 mm
zone of inhibition at 50 µg/disc (E. coli/cph003; [4]): 16 mm
zone of inhibition at 100 µg/disc (E. coli/cph003; [4]): 20 mm
zone of inhibition at 200 µg/disc (E. coli/cph003; [4]): 22 mm

— paper PMC10730852 (Communications Biology, 2023)
